The assay deals with tyrosine kinase in the measurement sample (cell membrane fraction of breast cancer cell lines). In words: Tyrosine kinase activity of cell membrane fraction in presence/absence of tyrosine kinase inhibitor (Poly-Glu4-Tyr substrate, ELISA chemiluminescence). Type of assay: biochemical. The note with it: 25 μM kinase inhibitor, 25 μM ATP, activity with inhibitor / without. The procedure:
500 μl of NP40(−) solubilized buffer (20 mM HEPES (pH 7.4)), 10 (w/v) % glycerol, 0.2% protease inhibitor cocktail (#P8340: Sigma-Aldrich (product composition: 104 mM AEBSF, 80 μM aprotinin, 4 mM bestatin, 1.4 mM E-64, 2 mM leupeptin, 1.5 mM Pepstatin A), 50 mM NaF and 200 μM Na3VO4) was added to the cell pellet, followed by stirring for 2 seconds three times using a vortex mixer. After being allowed to stand for 10 minutes, the soluble fraction was removed by centrifugal operation (at 20000×g, for 30 minutes, at 4° C.). The obtained pellet was resuspended in 500 μl of NP40(−) solubilized buffer, the soluble fraction was again removed by centrifugal operation (at 20000×g, for 20 minutes, at 4° C.), and the pellet was washed. The pellet was resuspended by adding 500 μl of NP40(+) solubilized buffer (a buffer prepared by adding NP-40 to the NP40(−) solubilized buffer at a final concentration of 1% to the pellet, pipetting 50 times, and vortexing for 2 seconds three times. After being allowed to stand for 10 minutes, a cell membrane fraction containing a membrane protein was obtained by centrifugal operation (at 20000×g, for 40 minutes, at 4° C.). The protein concentration of the obtained cell membrane fraction was measured by DC protein assay (#500-0116 JA: Bio-Rad). Then, the cell membrane fraction was used as a measurement sample for the following experiments. The measurement sample was frozen with liquid nitrogen and stored at −80° C. before use for the following kinase activity measurement.
NeutrAvidin Coated Plates (HBC) (96-well white plate; #15509: Pierce) were washed three times with 300 μl of TBS-T (20 mM Tris-HCl (pH 7.4)), 150 mM NaCl, 0.1% tween). Then, 100 μl of Poly-Glu4-Tyr biotin conjugate (#12440: Upstate) which had been diluted to 1 μg/ml with TBS (20 mM Tris-HCl (pH 7.4), 150 mM NaCl) was added to the wells. After shaking at 37° C. and 400 rpm for 90 minutes, the wells were washed with 300 μl of TBS-T three times and a measuring plate was obtained.
The measurement sample was diluted with a kinase buffer (20 mM HEPES (pH 7.4), 25 mM MgCl2, 1.25 mM MnCl2, 250 μM Na3VO4, 12.5 (w/v) % glycerol) so as to adjust the protein concentration to 6.25 μg/ml. The diluted measurement sample was transferred to wells of a 96 well V bottom plate. As the tyrosine kinase inhibitors, Src kinase inhibitor I known as an inhibitor of Src (CAS No. 179248-59-0: Calbiochem), PP1 (CAS No. 172889-26-8: Biomol), and Src kinase inhibitor II (Calbiochem) represented by Structural formula (I) below were used. A DMSO solution (inhibitor concentration: 5 mM) containing these inhibitors (Inhibitors 1 to 10 shown in Table 6) was added to the wells at a ratio of 1:160 based on the diluted measurement sample, followed by mixing thereof. As the control, DMSO was added to the diluted measurement sample at the same ratio as the solution of the inhibitor.
After addition of each of the tyrosine kinase inhibitors, a mixed solution of the measurement sample and the inhibitor was allowed to stand at room temperature for 10 minutes. 40 μl of the mixed solution was transferred to wells of the measuring plate and 10 μl of an ATP solution (20 mM HEPES (pH 7.4), […]) as the phosphate group donor was added to the wells. The composition of the solution in the wells is as follows: protein concentration: 5 μg/ml, 20 mM HEPES (pH 7.4), 20 mM MgCl2, 1 mM MnCl2, 200 μM Na3VO4, 10 (w/v) % glycerol, and 25 μM ATP, 25 μM kinase inhibitor.
After shaking the measuring plate at 37° C. and 400 rpm for 60 minutes, the solution was removed from the measuring plate, and the wells were washed with 300 μl of TBS-T three times. 100 μl of Starting Block T20 (TBS) (#37543: Pierce) as a blocking solution was added to the wells, followed by blocking at 37° C. and 400 rpm for 10 minutes. The blocking solution was removed from the measuring plate. […]

[1] abbreviates: AU565 membrane fraction (dasatinib-insensitive cell line).
[2] abbreviates: BT-20 membrane fraction (dasatinib-sensitive cell line).
[3] abbreviates: BT-474 membrane fraction (dasatinib-insensitive cell line).
The mark [4] stands for this setting: BT-549 membrane fraction (dasatinib-insensitive cell line).
Where [5] appears, read: HCC1419 membrane fraction (dasatinib-insensitive cell line).
[6] abbreviates: HCC1428 membrane fraction (dasatinib-insensitive cell line).
[7] abbreviates: HCC1806 membrane fraction (dasatinib-sensitive cell line).
[8] abbreviates: HCC1954 membrane fraction (dasatinib-sensitive cell line).
Setting [9] is: HS578T membrane fraction (dasatinib-sensitive cell line).
Where [10] appears, read: MCF7 membrane fraction (dasatinib-insensitive cell line).
[11] abbreviates: MDA-MB-157 membrane fraction (dasatinib-sensitive cell line).
Setting [12] is: MDA-MB-231 membrane fraction (dasatinib-sensitive cell line).
[13] abbreviates: MDA-MB-435S membrane fraction (dasatinib-insensitive cell line).
Setting [14] is: MDA-MB-436 membrane fraction (dasatinib-insensitive cell line).
Where [15] appears, read: MDA-MB-453 membrane fraction (dasatinib-insensitive cell line).
[16] abbreviates: MDA-MB-468 membrane fraction (dasatinib-insensitive cell line).
Setting [17] is: SK-BR-3 membrane fraction (dasatinib-insensitive cell line).
[18] abbreviates: ZR-75-1 membrane fraction (dasatinib-insensitive cell line).
Setting [19] is: ZR-75-30 membrane fraction (dasatinib-insensitive cell line).

As to `COc1ccc2c(c1)cc(C)c1nnc(SCC(=O)Nc3cccc(C(C)=O)c3)n12` [Src kinase inhibitor II], the “RA (relative activity value)” value reads like this: under setting [1], 0.731; under setting [2], 0.668; under setting [3], 0.620; under setting [4], 0.528; under setting [5], 0.615; under setting [6], 0.720. Also, the “RA (relative activity value)” value under setting [7] came to 0.476; the “RA (relative activity value)” value under setting [8] is 0.644; the “RA (relative activity value)” value under setting [9] turned out to be 0.709; the “RA (relative activity value)” value under setting [10] is 0.307; the “RA (relative activity value)” value under setting [11] is on record as 0.715; the “RA (relative activity value)” value under setting [12] was determined as 0.426. Besides, the “RA (relative activity value)” value is, setting by setting: under setting [13], 0.500; under setting [14], 0.514; under setting [15], 0.549; under setting [16], 0.523; under setting [17], 0.414; under setting [18], 0.697. Besides, under setting [19], the “RA (relative activity value)” value worked out at 0.596.

Regarding `COc1cc2ncnc(Nc3ccc(Oc4ccccc4)cc3)c2cc1OC` [Src kinase inhibitor I, 4-(4′-phenoxylanilino)-6,7-dimethoxyquinazoline], the “RA (relative activity value)” value reads like this: under setting [1], 0.632; under setting [2], 0.434; under setting [3], 0.624; under setting [4], 0.394; under setting [5], 0.637; under setting [6], 0.563. The “RA (relative activity value)” value worked out at 0.329 under setting [7]; 0.535 under setting [8]; 0.418 under setting [9]; 0.508 under setting [10]; 0.397 under setting [11]; 0.364 under setting [12]. The “RA (relative activity value)” value reads like this: under setting [13], 0.551; under setting [14], 0.551; under setting [15], 0.837; under setting [16], 0.190; under setting [17], 0.567; under setting [18], 0.442. Also, the “RA (relative activity value)” value under setting [19] is on record as 0.627.

Regarding `Cc1ccc(-c2nn(C(C)(C)C)c3ncnc(N)c23)cc1` [PP1, 1-(1,1-dimethylethyl)-1-(4-methylphenyl)-1H-pyrazolo-[3,4-d]-pyrimidine-4-amine], the “RA (relative activity value)” value reads like this: under setting [1], 0.302; under setting [2], 0.309; under setting [3], 0.496; under setting [4], 0.193; under setting [5], 0.446; under setting [6], 0.451. In addition, the “RA (relative activity value)” value turned out to be 0.160 under setting [7]; 0.292 under setting [8]; 0.194 under setting [9]; 0.295 under setting [10]; 0.173 under setting [11]; 0.134 under setting [12]. The “RA (relative activity value)” value stood at 0.313 under setting [13]; 0.403 under setting [14]; 0.448 under setting [15]; 0.322 under setting [16]; 0.260 under setting [17]; 0.314 under setting [18]. The “RA (relative activity value)” value under setting [19] worked out at 0.507.

For the origin of these results see patent publication US20130143236A1, “METHOD FOR DETERMINING SENSITIVITY OF TUMOR CELLS TO DASATINIB AND COMPUTER PROGRAM” (priority 2011, published 2013).
